Results taken from article PMC3914206.

How the values were obtained:
Format in all cases: binding
panel of 442 kinases [1] = biological target: T1, panel of 442 kinases (Homo sapiens, UniProt O75582); settings: Compound Concentration 10 µM
T1 construct: purchased KINOMEscan
Excerpt: (§1) We assessed the selectivity of members of this scaffold using the KINOMEscan methodology across a near comprehensive panel of 442 kinases [[18,27]].

panel of 442 kinases [2] = biological target: T2, panel of 442 kinases (Homo sapiens, UniProt Q00537); settings: Compound Concentration 10 µM
T2 construct: purchased KINOMEscan
Excerpt: as §1

panel of 442 kinases [3] = biological target: T3, panel of 442 kinases (Homo sapiens, UniProt Q02750); settings: Compound Concentration 10 µM
T3 construct: purchased KINOMEscan
Excerpt: as §1

panel of 442 kinases [4] = settings: for KINOMEscan: EGFR(L747-E749del, A750P) / KINOMEscan: EGFR(L747-S752del, P753S) / KINOMEscan: EGFR(L747-T751del,Sins) / KINOMEscan: FLT3(ITD): Compound Concentration 10 µM; for Number of score not higher than 10: of 442 total assayed kinases, % Ctrl ≤ 10; for Number of score not higher than 10 / S10: compound concentration 10 µM; for S10: selectivity score = (number of kinases with %Ctrl ≤ 10)/total number of kinases tested (442)
Excerpt: as §1

T2 sequence (Q00537 whole entry): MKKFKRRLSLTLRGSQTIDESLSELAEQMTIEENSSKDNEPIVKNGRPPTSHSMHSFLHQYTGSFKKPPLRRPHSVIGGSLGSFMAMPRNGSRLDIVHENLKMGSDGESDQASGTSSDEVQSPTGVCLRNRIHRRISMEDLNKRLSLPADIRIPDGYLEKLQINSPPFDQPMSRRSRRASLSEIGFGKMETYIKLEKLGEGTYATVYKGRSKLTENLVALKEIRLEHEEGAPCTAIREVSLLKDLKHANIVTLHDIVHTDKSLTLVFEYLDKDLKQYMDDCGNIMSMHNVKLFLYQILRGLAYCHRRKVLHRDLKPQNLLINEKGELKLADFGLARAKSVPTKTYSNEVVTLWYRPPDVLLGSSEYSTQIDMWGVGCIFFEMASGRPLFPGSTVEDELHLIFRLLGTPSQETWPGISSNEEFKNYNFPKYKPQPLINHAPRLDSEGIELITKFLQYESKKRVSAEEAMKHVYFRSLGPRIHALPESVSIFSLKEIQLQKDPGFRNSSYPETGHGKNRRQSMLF
T1 sequence (O75582 whole entry): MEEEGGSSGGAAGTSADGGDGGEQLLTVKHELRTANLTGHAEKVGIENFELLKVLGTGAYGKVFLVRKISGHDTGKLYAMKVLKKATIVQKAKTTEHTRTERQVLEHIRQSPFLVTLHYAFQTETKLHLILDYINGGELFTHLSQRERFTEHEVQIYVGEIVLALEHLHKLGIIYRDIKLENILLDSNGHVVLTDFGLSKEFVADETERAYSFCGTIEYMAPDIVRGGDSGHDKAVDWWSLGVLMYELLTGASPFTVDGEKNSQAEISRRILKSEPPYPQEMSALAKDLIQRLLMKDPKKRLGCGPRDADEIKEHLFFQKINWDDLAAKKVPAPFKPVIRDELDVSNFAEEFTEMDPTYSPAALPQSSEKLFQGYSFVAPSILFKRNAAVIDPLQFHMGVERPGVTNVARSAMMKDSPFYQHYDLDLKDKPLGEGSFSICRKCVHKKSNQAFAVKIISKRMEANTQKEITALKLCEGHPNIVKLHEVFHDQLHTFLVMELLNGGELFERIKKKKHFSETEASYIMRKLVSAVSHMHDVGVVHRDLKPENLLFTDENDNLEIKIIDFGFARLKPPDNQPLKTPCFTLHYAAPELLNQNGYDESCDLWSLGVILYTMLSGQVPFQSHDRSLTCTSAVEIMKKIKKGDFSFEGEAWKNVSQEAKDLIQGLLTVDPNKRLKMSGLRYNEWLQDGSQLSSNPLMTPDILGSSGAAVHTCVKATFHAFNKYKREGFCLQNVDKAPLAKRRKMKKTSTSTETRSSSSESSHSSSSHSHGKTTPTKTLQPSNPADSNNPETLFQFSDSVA
T3 sequence (Q02750 whole entry): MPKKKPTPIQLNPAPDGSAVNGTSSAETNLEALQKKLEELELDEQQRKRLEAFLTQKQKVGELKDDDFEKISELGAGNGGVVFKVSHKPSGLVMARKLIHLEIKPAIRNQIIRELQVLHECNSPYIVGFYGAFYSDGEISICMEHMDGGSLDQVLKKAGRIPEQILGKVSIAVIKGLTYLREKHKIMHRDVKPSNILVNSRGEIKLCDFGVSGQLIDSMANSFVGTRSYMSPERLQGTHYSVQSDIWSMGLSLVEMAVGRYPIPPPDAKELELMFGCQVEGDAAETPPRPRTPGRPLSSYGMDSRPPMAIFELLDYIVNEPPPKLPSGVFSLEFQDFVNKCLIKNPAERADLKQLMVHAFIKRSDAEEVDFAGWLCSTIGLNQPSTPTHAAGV

Row | Structure (SMILES) | KINOMEscan: RPS6KA5(Kin.Dom.1-N-terminal) (panel of 442 kinases [1]) | KINOMEscan: RPS6KA5(Kin.Dom.2-C-terminal) (panel of 442 kinases [1]) | KINOMEscan: PCTK2 (panel of 442 kinases [2]) | KINOMEscan: MEK1 (panel of 442 kinases [3]) | KINOMEscan: EGFR(L747-E749del, A750P) (panel of 442 kinases [4]) | KINOMEscan: EGFR(L747-S752del, P753S) (panel of 442 kinases [4]) | KINOMEscan: EGFR(L747-T751del,Sins) (panel of 442 kinases [4]) | KINOMEscan: FLT3(ITD) (panel of 442 kinases [4]) | Number of score not higher than 10 (panel of 442 kinases [4]) | S10 (panel of 442 kinases [4]) | KINOMEscan selectivity score (S10) (panel of 442 kinases [4]; screened at 10 μM, 442 kinases)
1 | CCOc1cc(C(=O)N2CCC(N3CCN(C)CC3)CC2)ccc1Nc1ncc2c(n1)N(C1CCCC1)c1ccccc1C(=O)N2C [Compound 26] | 100 | 86 | 100 | 100 | 100 | 100 | 100 | 100 | 3 | 0.007 | –
2 | COc1cc(C(=O)N2CCC(N3CCN(C)CC3)CC2)ccc1Nc1ncc2c(n1)N1CCc3cccc(c31)C(=O)N2C [Compound 24] | – | 43 | 95 | 75 | – | – | – | – | – | – | –
3 | COc1cc(C(=O)N2CCC(N3CCN(C)CC3)CC2)ccc1Nc1ncc2c(n1)N(C)c1ccccc1C(=O)N2C [15 (LRRK2-IN-1)] | 96 | 92 | 83 | 100 | 78 | 84 | 100 | 100 | 16 | 0.036 | –
4 | COc1cc(C(=O)N2CCC(N3CCN(C)CC3)CC2)ccc1Nc1ncc2c(n1)N(C1CCCC1)c1ccccc1C(=O)N2C [Compound 25, 11-cyclopentyl-2-((2-methoxy-4-(4-(4-methylpiperazin-1-yl)piperidine-1-carbonyl)phenyl)amino)-5-methyl-5H-benzo[e]pyrimido[5,4-b][1,4]diazepin-6(11H)-one] | 100 | 100 | 80 | 68 | 85 | 74 | 76 | 100 | 8 | 0.018 | 0.018
